# Entries after “also recorded” stand apart in the source; their conditions may differ. Square brackets hold non-standard residues; d marks the D form. Ends that are not written are not given here.
# Tests used:
# HUVECs [1] = assay: Endothelial cell capillary-like tube formation assay; assay type: cell-based; details: VEGF (10 ng/mL) + 25 μM peptide; vs untreated HUVECs
# Description: To examine the effect of the present synthetic peptide on in vitro angiogenesis, growth factor-reduced matrigel was pipetted into pre-chilled 24-well plates (150 μl matrigel per well) and polymerized for 45 min at 37° C. […] In this experiment, images were captured using a Cannon camera on Zeiss inverted microscope with magnification ×40 and tube length was quantified using Image analysis software (Image-Pro Plus). The control peptide as used in the present invention has the sequence of DLYRVR (SEQ ID NO: 10).
# RPMI8226 cells = assay: MTT assay, VEGF-induced proliferation of RPMI8226 cells; assay type: cell-based
# Description: The multiple myeloma line RPMI8226 was cultivated in complex medium (RPMI1640) supplemented with 10% (vol/vol) heat-inactivated fetal calf serum (Invitrogen), 50 μg/mL penicillin, 50 μg/mL streptomycin, and 2 mM L-glutamine at 37° C. in a 5% CO2 atmosphere. RPMI8226 cells were cultured in serum-free RPMI1640 medium for 24 hrs, and then cells were seeded in 48-well culture plates (3×10^5 cells/well) and continued to culture in 0.5 ml fresh serum-free RPMI1640 medium containing 25 μM peptide for another 24 hrs. The cell viability was determined by the MTT assay. Briefly, 50 μL of MTT stock solution (50 μL) (5 mg MTT dissolved in 1 ml of sterile PBS) was added to each culture well. In addition, 50 μL of the MTT stock solution was added in 500 μL of medium as the negative control. The culture plate was incubated at 37° C. for 4 hours. Aliquots (450 μl) from each sample were taken to a new well of 48-well culture plate, adding 100 μL DMSO, mixing thoroughly using the pipette and reacted at 37° C. for 20 min and read absorbance at 570 nm. These synthesized peptides were then subject to MTT assay, in which vascular endothelial growth factor (VEGF) was used as a stimulant to induce cell proliferation. Results are depicted in FIGS. 1 to 4.
# rat aortic ring = assay: Rat aortic ring assay (ex vivo microvessel sprouting); set-up: species or system Sprague Dawley rats; details: beta-FGF induced; peptide 50 μM
# Description: Thoracic aortas were removed from euthanized 10-week-old male Sprague Dawley rats, and gently stripped off periaortic fibroadipose tissue. Aortas were sectioned to about 2-mm length rings, which were embedded in Matrigel. To induce angiogenesis, human recombinant bFGF (50 ng/ml) or bFGF plus the peptide (50 μM) was added in Matrigel. Gel (200 μl) containing an aortic ring was polymerized in 12-well plates (37° C. for 30 min) and then incubated with 1 ml of Medium 200 supplemented with 100 units/ml penicillin, and […] streptomycin and 2% FBS at 37 ° C. The cultures were propagated at 37 ° C. in a humidified incubator for up to 7 days. Sprouts were recorded using an inverted microscope platform (Leica DM16000B) with bright-field optics. Each ring was scored by three independent observers on a scale 0-4 depending on the degree of sprouting vessel being observed (0=no sprouting, 4=profuse sprouting). The experiment was repeated in triplicates.
# B16-F10 melanoma cells = assay: Experimental pulmonary metastasis in mice; assay type: in vivo, C57BL/6 mice
# Description: 2×10^5 B16-F10 cells were suspended in 100 μl PBS and checked for viability using trypan blue staining (>95%). The B16-F10 cells were then injected into the tail vein of the 6-week-old female C57BL/6 mice; while vehicle (DMSO), the present synthetic peptide or the control peptide (10 mg/kg) were administered by intraperitoneal injections every 2 days after the B16-F10 cell injection. Five mice were used for each group. On day 8 after inoculation of cells, the lungs were removed, and the number of visible colonies on the surface of the lungs were counted using a dissecting microscope.
# Metastasis is the foremost cause of death from cancer. In this example, to investigate the efficacy of the present synthetic peptide on the metastasis of cancer cells, B16-F10 cells were injected into the tail vein of a mouse, the animal was then treated with the present synthetic peptide (7-mer or 7-mer DD, 10 mg/Kg) by intraperitoneal injections every 2 days. Upon completion of the experiment, the lungs were then removed and the tumor colonies visible to the eyes were then counted. Results are depicted in FIG. 10.
# [2] = test system: rat model of laser-induced wet AMD; assay: Laser-induced wet AMD, rat model; assay type: in vivo; details: fluorescein angiography day 14; vs PBS vehicle
# Text: Further, the effect of 7-mer or 7-mer DD on rat model of laser-induced wet AMD was also investigated. Fluorescein angiography images were obtained on day 14 after laser burn, and the images were subsequently scored. Results are depicted in FIG. 14.
# HUVECs [3] = assay: VEGF-induced HUVEC proliferation assay; assay type: cell-based; details: VEGF (10 ng/mL) + 25 μM peptide; vs untreated HUVECs
# Description: HUVECs (1×10^5 cells per well of 6-well plate) were grown in Medium 200 with Low Serum Growth Supplement (LSGS Kit, supplement contains 1.9% FBS, 3 ng/ml bFGF, 10 μg/ml heparin, 1 μg/ml hydrocortisone, and 10 ng/ml EGF). Culture plates were coated with 2% gelatin. Cells (passages 4-8) were cultured at 37° C. in a humidified atmosphere of 5% CO2. […]
# HUVECs (1×10^5 cells per well of 6-well plate) in Medium 200 supplemented with LSGS Kit were allowed to grow onto 6-well plates coated with 2% gelatin for 24 hours at 37° C. in 5% CO2. The culture medium was then replaced with serum free Medium 200 overnight. […] Then, cells were harvested by trypsin-EDTA and counted using a hemocytometer.
# [4] = test system: STZ-induced diabetic mice; assay: Vascular abnormalities in the retina of diabetic mice; assay type: in vivo
# Description: Diabetic mice were generated by a single intraperitoneal injection of streptozotocin (STZ) (150 mg/kg body weight). STZ was freshly prepared in 0.1 M citrate buffer (pH 4.5). After injection, mice were supplied with 10% sucrose overnight to prevent sudden hypoglycemic shock. After 1 week, mice with non-fasting blood glucose levels >500 mg/dl were defined as diabetic and used for the experiments. DMSO Vehicle or the present synthetic peptide (10 mg/kg; n≥3 per peptide) were administered by intraperitoneal injections twice a day. After treatment for 24 h, mice were intraperitoneal injected with 100 mg/kg of BSA-FITC for further 30 min.
# To determine vascular lesions (hemorrhaging areas) in retina, the animals were euthanized by CO2 inhalation, and the eyes were enucleated and fixed by 2% paraformaldehyde for 2 hr and flat-mounted onto glass slides to obtain optical sections by an epifluorescence microscopy. Vascular lesions in the retina was scored in all four retinal quadrants of flat mounts by using a 20× objective. Six microscopic fields were sampled in each quadrant in both the central and peripheral retina, and data were presented as the average number of lesions/retina.
# Vascular FITC-BSA leakage was determined by a fluorescence spectrofluorometer based on standard curves of FITC-BSA at excitation and emission wavelengths of 488 and 535 nm, respectively, and then normalized to a non-injected control retina. For this analysis, retinas were dissected from treated and untreated diabetic mice after BSA-FITC injections, and each was solubilized in 300 μL ice-cold PBS.
# Diabetic retinopathy is characterized by blood-retinal barrier (BRB) breakdown and neurotoxicity. To evaluate the possible beneficial effect of the present synthetic peptides on diabetic retinopathy, STZ-induced diabetic mice were intraperitoneally injected with 7-mer peptide, DMSO vehicle or the control peptide (SEQ ID NO: 22). The retinal vascular abnormality was then monitored by detecting the extravasation of BSA-fluorescein. Results are depicted in FIG. 11.
# HUVECs [5] = assay: Apoptosis assay (annexin V-FITC); assay type: cell-based; details: HUVECs
# Description: The percentage of apoptotic HUVEC cells was assayed using TACS annexin V-FITC kit. The percentage of annexin V-positive cells was determined using in situ staining according to the manufacturer's instruction. The cell number was determined by counterstaining with Hoechst 33342. The nuclei in ten randomly selected fields of the three different chambers (˜7200 cells) were counted. Specimens were examined and photographed on a Zeiss epifluorescence microscope (×100, 10 fields/sample). Pictures were recorded on Zeiss software.
# [6] = test system: human uterine sarcoma cells (MES-SA/Dx5); assay: Tumorigenicity assay, xenografted human uterine sarcoma; assay type: in vivo, nude mice; details: 10 mg/kg intraperitoneal every 2 days
# Description: MES-SA/Dx5 cells (5×10^6 cells in 0.1 ml) were implanted by subcutaneous injections in the right flank region of female nude mice (n=24, each animal weighted about 20 g before the assay began). The experiments were approved by the Mackay Memorial Hospital Review Board for animal investigation. Treatment was initiated in animals when the tumor volume was above 80 mm^3. Vehicle DMSO, the present synthetic peptide or the control peptide (10 mg/kg) was administered by intraperitoneal injections every 2 days. Tumor progression was monitored for 10 days; size of the tumor was measured every 3 to 5 days with a caliper and the volume was calculated using the following formula: ½×length×width^2.
# To this purpose, human uterine sarcoma cells (MES-SA/Dx5) were implanted in nude mice to induce tumor formation, and when the volume of each tumor reached 80 mm^3, animals were then treated with vehicle alone, or the 7-mer peptide at the dose of 10 mg/kg, every 2 days for 10 days. Results are depicted in FIG. 9.
Substance,Tube length (Fold) (HUVECs [1]),"dose dependence of inhibitory action on VEGF-induced cell proliferation (RPMI8226 cells; 1 to 25 μM, RPMI8226 cells)",level of sprouting microvessels around the aortic ring (rat aortic ring),effect on number of colonies on the surface of the lung / in vivo metastasis (B16-F10 melanoma cells; 10 mg/Kg intraperitoneal every 2 days),"No. lung colonies (B16-F10 melanoma cells; 10 mg/Kg intraperitoneal every 2 days, day 8, n = 5)","Inhibition (%) (B16-F10 melanoma cells; lung colonies vs vehicle, 10 mg/Kg)",lesions caused by the laser burn [2],Cell number (Fold) (HUVECs [3]),extravasation of FITC-BSA [4],"Fluorescence Intensity (Fold) ([4]; leaked FITC-BSA in entire retina, vs vehicle)",induction of cell apoptosis (HUVECs [5]),biological activity of the analogue relative to the 7-mer (summary statement of the description) (RPMI8226 cells; summary of Example 1 findings),sizes of tumors [6],hemorrhage in the retinal parenchyma ([4]; intraperitoneal)
NH2-(D-Asp)-Leu-Tyr-Arg-Val-Arg-Ser-COOH (H-[dD]LYRVRS-OH) [7-mer DD],1.33 ± 0.25,dose dependent manner,inhibited,capable of reducing the number of colonies; also recorded: may suppress in vivo metastasis,40 ± 15.7,82.3,significantly ameliorated,0.90 ± 0.048,may significantly prevent,0.38 ± 0.11,–,–,–,–
"NH2-Asp-Leu-Tyr-Arg-Val-Arg-COOH (DLYRVR; not fully specified (N-terminus, C-terminus); printed as NH2-Asp-Leu-Tyr-Arg-Val-Arg-COOH) [Control Peptide, reference compound]",–,–,–,–,–,–,–,–,–,–,did not result in cell apoptosis,does not possess any biological function,remained relatively unchanged,several hemorrhaging areas
